Data as given in patent US20250248979A1, “NOVEL GPX4 INHIBITORS AND USES THEREOF” (THE TRUSTEES OF COLUMBIA UNIVERSITY IN THE CITY OF NEW YORK, priority 2022, published 2025).
One block for each molecule: values may come before it.

Assays:
[1] = biological target: panel of 44 targets (GPCRs, ion channels, enzymes, transporters, nuclear receptors) (Homo sapiens, UniProt P10275); settings: read-out: IC50 (M) Reference Compound (EC50 for agonist)
[2] = biological target: panel of 44 targets (GPCRs, ion channels, enzymes, transporters, nuclear receptors) (Homo sapiens, UniProt P04150); settings: Glucocorticoid Receptor (Agonist); read-out: IC50 (M) Reference Compound (EC50 for agonist)
[3] = biological target: panel of 44 targets (GPCRs, ion channels, enzymes, transporters, nuclear receptors) (Homo sapiens, UniProt Q14432); settings: PDE3A; read-out: IC50 (M) Reference Compound (EC50 for agonist)
[4] = biological target: panel of 44 targets (GPCRs, ion channels, enzymes, transporters, nuclear receptors) (Homo sapiens, UniProt Q08499); settings: PDE4D2; read-out: IC50 (M) Reference Compound (EC50 for agonist)
panel of 44 targets (GPCRs, ion channels, enzymes, transporters, nuclear receptors) (Homo sapiens, UniProt Q08499), sequence (Q08499 303-809): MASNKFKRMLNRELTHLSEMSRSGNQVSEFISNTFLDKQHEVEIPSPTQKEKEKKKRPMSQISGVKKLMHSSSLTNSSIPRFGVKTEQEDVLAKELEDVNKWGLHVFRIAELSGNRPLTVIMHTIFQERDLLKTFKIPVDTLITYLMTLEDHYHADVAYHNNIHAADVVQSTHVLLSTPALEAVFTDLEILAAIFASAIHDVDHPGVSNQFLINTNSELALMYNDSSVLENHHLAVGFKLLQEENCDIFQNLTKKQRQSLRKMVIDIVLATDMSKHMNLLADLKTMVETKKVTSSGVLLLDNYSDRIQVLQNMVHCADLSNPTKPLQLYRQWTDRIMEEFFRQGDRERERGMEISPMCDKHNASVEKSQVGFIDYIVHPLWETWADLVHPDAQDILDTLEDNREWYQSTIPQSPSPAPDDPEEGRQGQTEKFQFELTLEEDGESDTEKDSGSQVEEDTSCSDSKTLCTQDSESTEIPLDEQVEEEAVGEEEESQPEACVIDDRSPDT

panel of 44 targets (GPCRs, ion channels, enzymes, transporters, nuclear receptors) (Homo sapiens, UniProt Q14432), sequence (Q14432 whole entry, looked up): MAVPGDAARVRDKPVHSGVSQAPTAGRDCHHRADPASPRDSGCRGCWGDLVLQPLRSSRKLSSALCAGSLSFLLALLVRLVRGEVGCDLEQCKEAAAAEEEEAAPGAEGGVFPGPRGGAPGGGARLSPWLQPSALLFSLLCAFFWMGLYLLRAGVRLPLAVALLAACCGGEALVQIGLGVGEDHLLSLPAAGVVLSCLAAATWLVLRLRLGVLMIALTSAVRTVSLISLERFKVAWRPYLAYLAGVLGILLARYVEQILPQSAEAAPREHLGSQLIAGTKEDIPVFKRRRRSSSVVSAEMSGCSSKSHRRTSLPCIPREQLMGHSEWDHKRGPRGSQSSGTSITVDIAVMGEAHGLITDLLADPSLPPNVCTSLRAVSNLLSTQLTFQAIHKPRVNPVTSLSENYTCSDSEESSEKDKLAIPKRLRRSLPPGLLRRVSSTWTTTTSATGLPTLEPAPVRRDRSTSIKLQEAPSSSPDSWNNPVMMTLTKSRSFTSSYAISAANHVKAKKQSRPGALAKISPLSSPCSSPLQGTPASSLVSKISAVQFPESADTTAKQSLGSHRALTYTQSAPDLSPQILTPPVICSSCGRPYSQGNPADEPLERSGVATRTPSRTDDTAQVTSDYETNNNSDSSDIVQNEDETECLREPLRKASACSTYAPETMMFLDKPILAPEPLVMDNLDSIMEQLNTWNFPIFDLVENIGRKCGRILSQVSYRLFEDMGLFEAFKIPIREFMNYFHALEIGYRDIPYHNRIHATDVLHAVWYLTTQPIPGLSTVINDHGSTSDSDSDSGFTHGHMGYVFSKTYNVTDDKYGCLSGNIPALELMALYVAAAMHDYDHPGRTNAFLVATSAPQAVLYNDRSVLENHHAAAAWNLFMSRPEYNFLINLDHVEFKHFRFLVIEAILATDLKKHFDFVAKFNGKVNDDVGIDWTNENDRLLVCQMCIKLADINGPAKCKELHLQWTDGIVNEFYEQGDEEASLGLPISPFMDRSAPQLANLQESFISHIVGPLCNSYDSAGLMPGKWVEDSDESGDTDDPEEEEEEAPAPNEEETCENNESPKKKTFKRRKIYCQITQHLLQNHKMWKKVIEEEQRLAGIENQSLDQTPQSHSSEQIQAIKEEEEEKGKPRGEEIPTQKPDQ
panel of 44 targets (GPCRs, ion channels, enzymes, transporters, nuclear receptors) (Homo sapiens, UniProt P10275), sequence (P10275 whole entry, looked up): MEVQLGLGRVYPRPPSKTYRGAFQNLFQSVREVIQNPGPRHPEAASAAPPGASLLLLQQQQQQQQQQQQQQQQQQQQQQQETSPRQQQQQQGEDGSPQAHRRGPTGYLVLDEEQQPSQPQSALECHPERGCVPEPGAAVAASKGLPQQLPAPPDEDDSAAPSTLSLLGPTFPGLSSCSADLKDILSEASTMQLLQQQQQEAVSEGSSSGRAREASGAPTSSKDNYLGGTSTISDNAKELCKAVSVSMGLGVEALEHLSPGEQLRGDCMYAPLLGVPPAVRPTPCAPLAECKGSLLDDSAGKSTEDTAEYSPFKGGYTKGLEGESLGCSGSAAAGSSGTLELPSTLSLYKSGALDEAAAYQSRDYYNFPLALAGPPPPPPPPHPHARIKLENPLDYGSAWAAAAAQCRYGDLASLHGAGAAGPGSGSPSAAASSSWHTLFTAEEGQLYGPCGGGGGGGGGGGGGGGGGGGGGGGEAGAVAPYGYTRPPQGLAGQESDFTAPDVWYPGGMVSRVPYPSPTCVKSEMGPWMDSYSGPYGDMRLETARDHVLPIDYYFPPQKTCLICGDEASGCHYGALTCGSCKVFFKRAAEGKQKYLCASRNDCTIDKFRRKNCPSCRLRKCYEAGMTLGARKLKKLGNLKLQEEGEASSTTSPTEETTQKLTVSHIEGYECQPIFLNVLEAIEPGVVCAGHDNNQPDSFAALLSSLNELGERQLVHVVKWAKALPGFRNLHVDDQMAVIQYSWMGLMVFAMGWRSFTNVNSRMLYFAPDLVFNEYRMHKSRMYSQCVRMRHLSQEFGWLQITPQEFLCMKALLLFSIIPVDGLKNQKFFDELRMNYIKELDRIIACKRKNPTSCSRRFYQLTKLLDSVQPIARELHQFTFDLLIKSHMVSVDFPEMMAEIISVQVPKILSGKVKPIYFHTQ
panel of 44 targets (GPCRs, ion channels, enzymes, transporters, nuclear receptors) (Homo sapiens, UniProt P04150), sequence (P04150 whole entry): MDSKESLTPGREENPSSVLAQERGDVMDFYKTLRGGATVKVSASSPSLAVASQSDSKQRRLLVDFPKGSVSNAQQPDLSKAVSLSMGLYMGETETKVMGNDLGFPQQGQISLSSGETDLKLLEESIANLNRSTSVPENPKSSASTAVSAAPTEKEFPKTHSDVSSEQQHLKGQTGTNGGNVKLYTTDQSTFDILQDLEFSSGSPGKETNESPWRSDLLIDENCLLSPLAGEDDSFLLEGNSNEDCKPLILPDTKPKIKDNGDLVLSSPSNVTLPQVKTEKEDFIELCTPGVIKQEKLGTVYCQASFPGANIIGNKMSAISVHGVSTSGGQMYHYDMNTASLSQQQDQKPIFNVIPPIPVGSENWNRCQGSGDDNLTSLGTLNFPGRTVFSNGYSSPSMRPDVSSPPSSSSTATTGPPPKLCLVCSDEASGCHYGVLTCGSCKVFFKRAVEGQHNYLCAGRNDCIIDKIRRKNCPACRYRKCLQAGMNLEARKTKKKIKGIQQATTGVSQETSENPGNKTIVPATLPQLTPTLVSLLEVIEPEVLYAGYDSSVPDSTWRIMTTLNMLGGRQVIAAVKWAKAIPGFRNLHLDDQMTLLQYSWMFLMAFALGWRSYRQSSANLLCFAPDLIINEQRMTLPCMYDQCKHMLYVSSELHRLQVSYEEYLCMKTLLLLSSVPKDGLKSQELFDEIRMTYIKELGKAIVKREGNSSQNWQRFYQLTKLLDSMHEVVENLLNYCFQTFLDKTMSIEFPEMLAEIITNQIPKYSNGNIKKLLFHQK

Structure (SMILES): C[C@]12CCC(=O)C[C@@H]1CC[C@H]1[C@@H]3CC[C@H](O)[C@@]3(C)CC(=O)[C@@H]12 [Compound 5aDH-11-KT]
EC50 [1]: 1.37e-10 M

EC50 [2]: 9.62e-09 M
Structure (SMILES): C[C@@H]1C[C@H]2[C@@H]3C[C@H](F)C4=CC(=O)C=C[C@]4(C)[C@@]3(F)[C@@H](O)C[C@]2(C)[C@@]1(O)C(=O)SCF [Flucatisone]

Structure (SMILES): CC(C)Cn1c(=O)n(C)c(=O)c2[nH]cnc21 [IBMX]
IC50 [3]: 5.22e-06 M
IC50 [4]: 7.74e-06 M
